Read-outs that look alike come from different tables or passages of the source.
Assays:
[1] = Intrinsic clearance in liver microsomes; type: in vitro ADME, mouse; conditions: for Mouse CLhep, % Hepatic blood flow: mouse liver microsomes; for CLhep predicted at 1 μM: mouse, liver microsomes, pH 7.4, mouse liver microsomes, read-out: Mouse CLhep (in vitro hepatic clearance from microsomal CLint)
Protocol: (§1) The in vitro intrinsic clearance (CLint) was investigated in commercially obtained hepatic microsomes from mouse, rat, and human donors using the substrate depletion (i.e., loss-of-parent vs time, or half-life (t 1/2) method) approach with analyte detection via liquid chromatography–tandem mass spectrometry (LC-MS/MS). For each species, mean %parent remaining values at each time point were calculated from replicate raw data (analyte:IS peak area ratios) and used to determine in vitro t 1/2 and CLint.
(§2) Experiments were carried out by using a robot-assisted liquid handler (Bravo with BenchCell, Agilent). The compound was incubated (1 μM final concentration) in buffer (100 mM potassium phosphate pH 7.4 with 3 mM MgCl2) containing hepatic microsomes (0.5 mg/mL final concentration) from each species, discretely, at 37 °C under constant orbital shaking. After 5 min (preincubation), reactions were initiated by the addition of nicotinamide adenine dinucleotide phosphate (NADPH, 1 mM final concentration). At selected time intervals (0, 3, 7, 15, 25, and 45 min) postaddition of NADPH, aliquots (50 μL) were taken and placed into a 96-shallow-well plate containing ice-cold acetonitrile (150 μL) with carbamazepine (IS, 50 nM). The plates were then centrifuged (3000 rcf at 4 °C) for 10 min. The supernatants were transferred to a new 96-shallow-well daughter plate and diluted (1:1 v/v) with water (Milli-Q filtered). The plates were then sealed for preparation for LC-MS/MS analysis (see below).
(§3) Analyte:IS peak area ratios generated by LC-MS/MS were used to construct natural log-transformed %parent remaining vs time plots (using t = 0 min post-NADPH addition sample data as the starting point set to 100%). In vitro compound t 1/2 values were calculated by using the following equation: t1/2=ln(2)/k where k is the slope from the linear regression analysis of the natural log-transformed data (using means from all replicates at each time point). Resulting t 1/2 values were then used to calculate hepatic CLint values according to the following equation and with the use of species-specific scale-up factors for liver weight (grams) per total body weight (kg): CLint=0.693/invitrot1/2×1mLincubation/0.5mgmicrosomes×45mgmicrosomes/1gramliver×garamliver/kgbodywt
(§4) ^aScale-up factors used are 45 (rat) and 20 (human).
(§5) Predicted hepatic clearance (CLhep) was calculated by using the following equation: CLhep=Qh×CLint/Qh+CLint
(§6) Q h represents hepatic blood flow (mL/min/kg): 21 for humans, 70 for rats, and 90 for mouse.

[2] = In vivo IV pharmacokinetics, rat cassette; conditions: Sprague-Dawley, plasma, 0.2 mg/kg, male SD rats, 0.2 mpk IV; for Vd: read-out: Vss; for clearance: read-out: rat in vivo CLp
Protocol: In-life phase–Compounds were formulated in 12% ethanol, 48% PEG400, and 40% DMSO (v/v/v) at a concentration of 1 mg/mL and administered as a single 0.2 mg/kg IV dose (1 mL/kg) to male, Sprague–Dawley rats (n = 1; 342 g body weight) via injection into a surgically implanted jugular vein catheter. Blood samples were collected serially from a surgically implanted carotid artery catheter in each animal over multiple postadministration time points (0.033, 0.117, 0.25, 0.5, 1, 2, 4, 7, and 24 h) into chilled, K2EDTA anticoagulant-fortified tubes and immediately placed on wet ice. The blood samples were then centrifuged (1700 rcf, 5 min, 4 °C) in order to obtain plasma samples, which were stored at −80 °C until analysis by LC-MS/MS. VU6032735 was also dosed IV in C57Bl6 mice at 5 mg/kg IV to determine mouse PK. Formulation and experimental design were identical to those used for rats except that whole blood was used for analysis.
Plasma samples from the in-life phase of the study were thawed at ambient temperature (benchtop), and then, aliquots (20 μL per sample) were transferred to a 96-shallow-well (V-bottom) plate. Matrix-matched quality control (QC) samples and a standard curve of the compound (1 mg/mL DMSO stock solution) were prepared in blank rat plasma (K2EDTA-treated) via serial dilution and transferred (20 μL each) to the plate along with multiple blank plasma and tissue homogenate samples. Acetonitrile (120 μL) containing IS (10 nM carbamazepine) was added to each well of the plate to precipitate the protein. The plate was then centrifuged (4000 rcf, 5 min, ambient temperature), and the resulting supernatants (60 μL each) were transferred to a new 96-shallow-well (V-bottom) plate containing an equal volume (60 μL per well) of water (Milli-Q purified). The plate was then sealed for LC-MS/MS analysis.
Samples were analyzed via electrospray ionization (ESI) LC-MS/MS on an AB Sciex 4500 (Foster City, CA) triple-quadrupole instrument that was coupled with an Agilent 1290 Infinity Binary Pump and multisampler (Santa Clara, CA) and concentrations (ng/mL or ng/g) were determined using a matrix-matched 10-point standard curve and then converted to nM concentrations. Quantitation of compounds was performed via AB Sciex Multiquant software using the raw analyte:IS peak area ratios. The typical detection range was 0.5 ng/mL to ≥5000 ng/mL utilizing a quadratic equation regression with 1/x² weighting. Correction for dilution of all tissue samples was performed postquantitation. The corrections for dilution in the extraction buffer employed correction factors specific to each tissue weight.

[3] = Plasma protein binding, equilibrium dialysis; type: in vitro ADME
Protocol: Determination of compounds’ fraction unbound (f u ) in plasma from mouse, rat, and human was conducted in vitro via equilibrium dialysis using HTDialysis membrane plates. Dialysis membranes were hydrated as described by the manufacturer and inserted into the HTD plate, which was assembled and prepared for sample addition by the dispensing of blank buffer (Dulbecco’s Phosphate-Buffered Saline, 100 μL/well) into the trans chamber of each membrane-split well. Each compound was diluted into plasma from each species (5 μM final concentration), which was aliquoted in triplicate in the cis chamber of the prepared HTD plate wells. The HTD plate was sealed and incubated for 6 h at 37 °C. Following incubation, each well (both cis and trans chambers) was transferred (20 μL) to the corresponding wells of a 96-shallow-well (V-bottom) plate. The daughter plates were then matrix-matched (buffer-side wells received an equal volume of plasma, and plasma-side wells received an equal volume of buffer), and an extraction solution (120 μL; acetonitrile containing 50 nM carbamazepine as an internal standard (IS)) was added to all wells of both daughter plates to precipitate protein and extract the test article. The plates were then sealed and centrifuged (3500 rcf) for 10 min at ambient temperature. Supernatant (60 μL) from each well of the daughter plates was then transferred to the corresponding wells of new daughter plates (96-shallow-well, V-bottom) containing water (Milli-Q, 60 μL/well), and the plates were sealed in preparation for liquid chromatography–tandem mass spectrometry (LC-MS/MS) analysis (see below).

[4] = Intrinsic clearance in liver microsomes; type: in vitro ADME, human; conditions: for Human CLhep, % Hepatic blood flow: human liver microsomes; for CLhep predicted at 1 μM: human, liver microsomes, pH 7.4, human liver microsomes, read-out: Human CLhep (in vitro hepatic clearance from microsomal CLint)
Protocol: as §1, §2, §3, §4, §5, §6

[5] = human, fraction unbound, equilibrium dialysis, 5 μM, read-out: Plasma Protein Binding (fu) Human
[6] = mouse, equilibrium dialysis, 5 μM, read-out: Plasma Protein Binding (fu) Mouse
[7] = rat, equilibrium dialysis, 5 μM, read-out: Plasma Protein Binding (fu) Rat

Structure (SMILES)	Mouse CLhep, % Hepatic blood flow [1] [%]	CLhep predicted at 1 μM [1] [mL/min/kg]	AUC [2] [ng·h/mL]	MRT [2] [h]	half-life [2] [h]	Vd [2] [L/kg]	clearance [2] [mL/min/kg]	fraction unbound at 6 h, 5 μM [3, 5]	fraction unbound at 6 h, 5 μM [3, 6]	fraction unbound at 6 h, 5 μM [3, 7]	Human CLhep, % Hepatic blood flow [4] [%]	CLhep predicted at 1 μM [4] [mL/min/kg]	fraction unbound at 6 h, 5 μM ([3]; human, fraction unbound as percent, read-out: fu in human plasma)	fraction unbound at 6 h, 5 μM ([3]; mouse, read-out: fu in mouse plasma)	fraction unbound at 6 h, 5 μM ([3]; rat, read-out: fu in rat plasma)
Cc1cc(Cl)cc2sc(O[C@@H]3CCN(C(=O)CCCS(=O)(=O)c4cccc(Br)c4)C[C@H]3F)nc12 [VU6047607]	98	88.1	47	1.58	1.8	6.75	71	0.002	0.004	0.004	82	17.2	–	–	–
Cc1cc(Cl)cc2sc(O[C@@H]3CCN(C(=O)CCCS(=O)(=O)c4cccc(Br)c4)C[C@@H]3F)nc12 [VU6047608]	95	85.9	58.8	1.7	1.65	5.77	56.7	0.001	0.004	0.002	82	17.1	–	–	–
Cc1cc(Cl)cc2sc(O[C@H]3CCN(C(=O)CCCS(=O)(=O)c4cccc(Br)c4)C[C@@H]3F)nc12 [VU6047609]	97	87.6	45.2	2.36	2.91	10.5	73.8	0.002	0.008	0.004	75	15.8	–	–	–
Cc1cc(Cl)cc2sc(O[C@H]3CCN(C(=O)CCCS(=O)(=O)c4cccc(Br)c4)C[C@H]3F)nc12 [VU6047606]	93	> 60	83.1	2.09	1.96	5.03	40.1	0.001	0.0002	0.001	74	> 15	< 0.01	< 0.01	< 0.01
O=C(c1ccc(OCc2ccc(OC(F)(F)F)cc2)cc1)N1CCN(c2ccc(C(F)(F)F)cn2)CC1 [VU6032735]	56	50.1	114	2.66	2.19	4.69	29.3	0.0005	0.012	0.024	23	4.8	–	–	–

Source: publication PMC12441834, “Highly Potent and Subtype-Selective Sperm-Specific Potassium Channel SLO3 Inhibitors Display High Tissue Exposure in the Murine Female Reproductive Tract” (ACS Pharmacology & Translational Science, 2025)
